Laboratory results from PMC5564600 (Oncotarget, 2017).

Legend:
Assay in all cases: biochemical
Type in all cases: binding
panel of 442 kinases [1] = target: T1, panel of 442 kinases (Homo sapiens, UniProt O95835); conditions: kinase LATS1; for remaining activity at 1 µM: read-out: % of control at 1 µM
T1 construct: purchased Ambit Biosciences (scanMAXX KINOMEscan)
T1 sequence (O95835 1-1130): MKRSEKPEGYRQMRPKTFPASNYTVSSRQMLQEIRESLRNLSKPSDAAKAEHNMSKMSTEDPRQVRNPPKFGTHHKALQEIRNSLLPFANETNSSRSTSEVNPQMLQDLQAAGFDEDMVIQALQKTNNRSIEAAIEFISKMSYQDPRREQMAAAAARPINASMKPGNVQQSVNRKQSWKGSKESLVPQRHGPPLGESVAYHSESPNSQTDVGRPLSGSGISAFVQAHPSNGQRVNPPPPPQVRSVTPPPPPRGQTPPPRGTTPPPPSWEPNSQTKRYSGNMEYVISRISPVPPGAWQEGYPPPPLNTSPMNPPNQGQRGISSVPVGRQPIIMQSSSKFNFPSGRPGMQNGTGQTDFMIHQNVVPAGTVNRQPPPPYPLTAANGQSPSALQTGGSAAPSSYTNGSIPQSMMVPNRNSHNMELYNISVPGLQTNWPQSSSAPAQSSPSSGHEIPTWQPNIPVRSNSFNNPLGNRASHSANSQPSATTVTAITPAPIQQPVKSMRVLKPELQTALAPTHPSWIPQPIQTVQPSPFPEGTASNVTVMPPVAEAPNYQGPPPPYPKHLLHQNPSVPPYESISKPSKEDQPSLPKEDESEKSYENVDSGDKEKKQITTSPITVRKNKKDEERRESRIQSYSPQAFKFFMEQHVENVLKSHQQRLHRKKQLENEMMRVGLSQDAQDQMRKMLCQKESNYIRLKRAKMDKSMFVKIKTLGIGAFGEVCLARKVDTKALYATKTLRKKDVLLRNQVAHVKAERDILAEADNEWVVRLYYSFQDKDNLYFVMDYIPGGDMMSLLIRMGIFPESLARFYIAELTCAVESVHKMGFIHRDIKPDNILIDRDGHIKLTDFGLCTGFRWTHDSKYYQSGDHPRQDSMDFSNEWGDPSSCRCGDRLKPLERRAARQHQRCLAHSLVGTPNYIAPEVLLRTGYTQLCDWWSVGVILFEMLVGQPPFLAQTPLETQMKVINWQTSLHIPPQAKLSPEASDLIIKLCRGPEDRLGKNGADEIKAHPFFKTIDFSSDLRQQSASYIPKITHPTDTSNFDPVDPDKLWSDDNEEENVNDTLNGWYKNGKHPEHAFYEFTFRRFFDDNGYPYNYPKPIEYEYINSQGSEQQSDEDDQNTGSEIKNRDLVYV

panel of 442 kinases [2] = target: T2, panel of 442 kinases (Homo sapiens, UniProt P22607, G697C); conditions: FGFR3(G697C); for remaining activity at 1 µM: read-out: % of control at 1 µM
T2 construct: purchased Ambit Biosciences (scanMAXX KINOMEscan)

panel of 442 kinases [3] = target: T3, panel of 442 kinases (Homo sapiens, UniProt Q8N752); conditions: CSNK1A1L; for remaining activity at 1 µM: read-out: % of control at 1 µM
T3 construct: purchased Ambit Biosciences (scanMAXX KINOMEscan)
T3 sequence (Q8N752 1-337): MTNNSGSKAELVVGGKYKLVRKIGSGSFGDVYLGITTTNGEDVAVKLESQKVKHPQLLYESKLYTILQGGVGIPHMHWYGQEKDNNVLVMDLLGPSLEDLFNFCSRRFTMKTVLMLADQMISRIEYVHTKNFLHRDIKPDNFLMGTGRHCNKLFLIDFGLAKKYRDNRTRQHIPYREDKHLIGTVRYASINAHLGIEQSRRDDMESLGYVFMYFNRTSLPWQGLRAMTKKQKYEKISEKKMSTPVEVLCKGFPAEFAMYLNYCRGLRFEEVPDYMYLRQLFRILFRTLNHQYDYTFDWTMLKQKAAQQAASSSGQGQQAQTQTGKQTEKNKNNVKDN

panel of 442 kinases [4] = target: T4, panel of 442 kinases (Homo sapiens, UniProt Q8NG66); conditions: kinase NEK11; for remaining activity at 1 µM: read-out: % of control at 1 µM
T4 construct: purchased Ambit Biosciences (scanMAXX KINOMEscan)
T4 sequence (Q8NG66 1-645): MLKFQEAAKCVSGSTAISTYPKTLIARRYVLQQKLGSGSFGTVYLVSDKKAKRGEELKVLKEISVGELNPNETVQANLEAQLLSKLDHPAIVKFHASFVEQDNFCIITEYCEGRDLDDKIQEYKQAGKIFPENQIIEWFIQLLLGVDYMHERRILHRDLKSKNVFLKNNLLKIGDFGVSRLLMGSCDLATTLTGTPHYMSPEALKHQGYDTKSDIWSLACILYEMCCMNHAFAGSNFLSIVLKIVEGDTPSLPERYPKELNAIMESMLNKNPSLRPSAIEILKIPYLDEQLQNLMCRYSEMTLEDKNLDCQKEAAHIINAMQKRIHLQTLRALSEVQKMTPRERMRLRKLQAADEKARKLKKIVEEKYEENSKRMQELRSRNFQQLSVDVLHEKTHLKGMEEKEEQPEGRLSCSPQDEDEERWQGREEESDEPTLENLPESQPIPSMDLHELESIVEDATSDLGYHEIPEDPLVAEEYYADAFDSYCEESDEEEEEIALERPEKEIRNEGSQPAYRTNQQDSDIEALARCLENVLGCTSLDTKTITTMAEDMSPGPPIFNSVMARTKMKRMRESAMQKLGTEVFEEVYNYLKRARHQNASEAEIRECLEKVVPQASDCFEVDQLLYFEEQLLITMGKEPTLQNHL

panel of 442 kinases [5] = target: T5, panel of 442 kinases (Homo sapiens, UniProt Q96D53); conditions: ADCK4; for remaining activity at 1 µM: read-out: % of control at 1 µM
T5 construct: purchased Ambit Biosciences (scanMAXX KINOMEscan)
T5 sequence (Q96D53 1-544): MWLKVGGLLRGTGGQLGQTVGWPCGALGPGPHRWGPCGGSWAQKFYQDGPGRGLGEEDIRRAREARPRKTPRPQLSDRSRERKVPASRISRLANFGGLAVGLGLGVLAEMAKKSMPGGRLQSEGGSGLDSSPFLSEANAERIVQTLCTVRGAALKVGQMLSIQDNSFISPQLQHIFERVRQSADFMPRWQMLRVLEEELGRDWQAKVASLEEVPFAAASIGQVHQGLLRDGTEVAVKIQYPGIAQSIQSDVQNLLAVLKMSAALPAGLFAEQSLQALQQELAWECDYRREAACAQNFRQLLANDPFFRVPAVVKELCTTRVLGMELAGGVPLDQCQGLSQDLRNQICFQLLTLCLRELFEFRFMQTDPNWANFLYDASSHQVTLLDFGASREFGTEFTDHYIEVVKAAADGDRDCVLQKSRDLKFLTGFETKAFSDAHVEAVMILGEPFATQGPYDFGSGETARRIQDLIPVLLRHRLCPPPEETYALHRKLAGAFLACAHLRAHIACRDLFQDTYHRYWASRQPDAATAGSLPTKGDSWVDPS

panel of 442 kinases [6] = target: T6, panel of 442 kinases (Homo sapiens, UniProt Q9H0K1); conditions: kinase SIK2; for remaining activity at 1 µM: read-out: SIK2 (% of control at 1 µM)
T6 construct: purchased Ambit Biosciences (scanMAXX KINOMEscan)

[7] = 10 µM, read-out: % of control at 10 µM

T2 sequence (P22607 23-806 G697C): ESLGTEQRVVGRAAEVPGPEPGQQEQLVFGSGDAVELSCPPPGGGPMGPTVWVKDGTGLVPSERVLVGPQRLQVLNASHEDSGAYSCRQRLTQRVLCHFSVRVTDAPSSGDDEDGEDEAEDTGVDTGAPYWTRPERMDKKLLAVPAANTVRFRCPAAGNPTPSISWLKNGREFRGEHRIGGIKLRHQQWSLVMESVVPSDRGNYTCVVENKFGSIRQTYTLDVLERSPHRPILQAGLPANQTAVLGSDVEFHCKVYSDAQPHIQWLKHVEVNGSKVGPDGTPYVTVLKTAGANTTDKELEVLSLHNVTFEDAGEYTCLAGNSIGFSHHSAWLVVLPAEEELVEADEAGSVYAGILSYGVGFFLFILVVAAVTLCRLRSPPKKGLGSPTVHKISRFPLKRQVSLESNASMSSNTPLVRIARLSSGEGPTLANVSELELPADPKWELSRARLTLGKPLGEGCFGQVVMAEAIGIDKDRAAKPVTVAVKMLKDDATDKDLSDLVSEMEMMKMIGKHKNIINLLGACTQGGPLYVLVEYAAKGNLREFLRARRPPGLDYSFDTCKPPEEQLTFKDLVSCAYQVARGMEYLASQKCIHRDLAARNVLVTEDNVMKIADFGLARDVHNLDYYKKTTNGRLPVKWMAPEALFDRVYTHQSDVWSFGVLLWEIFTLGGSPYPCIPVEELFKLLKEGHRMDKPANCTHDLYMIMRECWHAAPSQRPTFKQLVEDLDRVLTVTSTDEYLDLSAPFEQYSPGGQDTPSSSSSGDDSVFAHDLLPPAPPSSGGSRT
T6 sequence (Q9H0K1 whole entry): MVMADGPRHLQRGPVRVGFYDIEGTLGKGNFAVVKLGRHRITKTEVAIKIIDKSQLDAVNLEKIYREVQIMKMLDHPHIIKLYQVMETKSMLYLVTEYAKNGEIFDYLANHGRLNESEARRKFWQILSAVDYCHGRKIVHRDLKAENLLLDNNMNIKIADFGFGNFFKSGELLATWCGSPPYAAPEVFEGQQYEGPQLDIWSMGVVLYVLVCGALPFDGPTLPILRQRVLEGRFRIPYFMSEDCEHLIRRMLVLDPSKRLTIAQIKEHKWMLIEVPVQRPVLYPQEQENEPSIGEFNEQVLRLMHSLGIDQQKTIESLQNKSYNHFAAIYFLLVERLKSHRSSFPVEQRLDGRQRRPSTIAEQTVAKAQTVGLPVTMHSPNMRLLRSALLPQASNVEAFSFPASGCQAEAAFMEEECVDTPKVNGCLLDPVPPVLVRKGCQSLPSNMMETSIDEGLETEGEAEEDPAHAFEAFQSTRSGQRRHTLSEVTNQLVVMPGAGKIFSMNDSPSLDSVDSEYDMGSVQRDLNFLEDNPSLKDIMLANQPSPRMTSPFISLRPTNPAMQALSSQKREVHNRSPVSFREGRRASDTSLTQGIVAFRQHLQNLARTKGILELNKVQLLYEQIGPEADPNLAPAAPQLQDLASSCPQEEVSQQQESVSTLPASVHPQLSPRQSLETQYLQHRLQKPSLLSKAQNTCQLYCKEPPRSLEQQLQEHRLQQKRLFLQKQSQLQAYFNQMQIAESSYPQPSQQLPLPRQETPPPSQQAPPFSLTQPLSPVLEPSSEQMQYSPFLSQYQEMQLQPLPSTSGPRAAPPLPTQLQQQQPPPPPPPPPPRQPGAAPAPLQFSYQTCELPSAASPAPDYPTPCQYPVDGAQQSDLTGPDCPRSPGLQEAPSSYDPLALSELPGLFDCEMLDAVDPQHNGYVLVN

Nc1cc(C(F)(F)F)c(-c2cc(N3CCOCC3)nc(N3CCOCC3)n2)cn1 [Buparlisib]
remaining activity at 1 µM (panel of 442 kinases [1]): 71% | remaining activity at 10 µM (panel of 442 kinases [1]; [7]): 100% | remaining activity at 1 µM (panel of 442 kinases [2]): 86% | remaining activity at 10 µM (panel of 442 kinases [2]; [7]): 100% | remaining activity at 1 µM (panel of 442 kinases [3]): 100% | remaining activity at 10 µM (panel of 442 kinases [3]; [7]): 100% | remaining activity at 1 µM (panel of 442 kinases [4]): 74% | remaining activity at 10 µM (panel of 442 kinases [4]; [7]): 96% | remaining activity at 1 µM (panel of 442 kinases [5]): 100% | remaining activity at 10 µM (panel of 442 kinases [5]; [7]): 100% | remaining activity at 1 µM (panel of 442 kinases [6]): 100% | remaining activity at 10 µM (panel of 442 kinases [6]; 10 µM, read-out: SIK2 (% of control at 10 µM)): 93%

COc1ncc(-c2ccc3nccc(-c4ccnnc4)c3c2)cc1NS(=O)(=O)c1ccc(F)cc1F [Omipalisib]
remaining activity at 1 µM (panel of 442 kinases [1]): 100% | remaining activity at 1 µM (panel of 442 kinases [2]): 68% | remaining activity at 1 µM (panel of 442 kinases [3]): 100% | remaining activity at 1 µM (panel of 442 kinases [4]): 100% | remaining activity at 1 µM (panel of 442 kinases [5]): 75% | remaining activity at 1 µM (panel of 442 kinases [6]): 100%

FC(F)c1nc2ccccc2n1-c1nc(N2CCOCC2)nc(N2CCOCC2)n1 [ZSTK474, 2-(difluoromethyl)-1-[4,6-di(4-morpholinyl)-1,3,5-triazin-2-yl]-1H-benzimidazole]
remaining activity at 1 µM (panel of 442 kinases [1]): 90% | remaining activity at 1 µM (panel of 442 kinases [2]): 100% | remaining activity at 1 µM (panel of 442 kinases [3]): 100% | remaining activity at 1 µM (panel of 442 kinases [4]): 82% | remaining activity at 1 µM (panel of 442 kinases [5]): 74% | remaining activity at 1 µM (panel of 442 kinases [6]): 78%

Cn1c(=O)n(-c2ccc(C(C)(C)C#N)cc2)c2c3cc(-c4cnc5ccccc5c4)ccc3ncc21 [Dactolisib, 2-methyl-2-[4-(3-methyl-2-oxo-8-quinolin-3-yl-2,3-dihydroimidazo[4,5-c]quinolin-1-yl)-phenyl] propionitrile]
remaining activity at 1 µM (panel of 442 kinases [1]): 100% | remaining activity at 1 µM (panel of 442 kinases [2]): 90% | remaining activity at 1 µM (panel of 442 kinases [3]): 100% | remaining activity at 1 µM (panel of 442 kinases [4]): 81% | remaining activity at 1 µM (panel of 442 kinases [6]): 82%
